This experiment relates to HIV. Briefly: EC50 of Table 1 (antiviral activity, method not described). The class given is cell-based. Conditions: Human immunodeficiency virus 1.

On to `CC(C)CCN(C[C@@H](O)[C@H](Cc1ccccc1)NC(=O)C1CCCS(=O)(=O)C1)C(=O)NC(C)(C)Cn1ccnc1` (stereo partly drawn) [Example 4a], for which the EC50 turned out to be 295 nM.
With `CC(C)(C)NC(=O)[C@@H]1C[C@@H]2CCCC[C@@H]2CN1C[C@@H](O)[C@H](Cc1ccccc1)NC(=O)C1CCCS(=O)(=O)C1` (stereo partly drawn) [Example 7] the figure was 12 nM; with `CC(C)CCN(C[C@@H](O)[C@H](Cc1ccccc1)NC(=O)C1CCCS(=O)(=O)C1)S(=O)(=O)c1ccccc1` (stereo partly drawn) [Example 8], 19 nM.

As a reminder, the EC50 is the concentration that produces a half-maximal response. Read a high EC50 as weaker potency.

The record behind these values is patent US20070015818A1, “Cyclic sulfone containing retroviral protease inhibitors” (G.D. Searle & Co. (now G.D. Searle, LLC), priority 1995, published 2007).
